Consider 2 compounds from patent US8895761B2, “4-phenylpyrane-3,5-diones, 4-phenylthiopyrane-3,5-diones and 2-phenylcyclohexane-1,3,5-triones as herbicides” (Syngenta Limited, priority 2007, dated 2014).

Holding throughout (type): in vivo
Assay [1] relates to Setaria faberi (SETFA). Briefly: Pre-emergence herbicidal glasshouse test, Setaria faberi. The settings on record: Setaria faberi, 312 h, rate 250 g/ha, evaluated after 13 days, scale 100 = total damage to plant, 0 = no damage. The protocol:
(§1) Seeds of a variety of test species were sown in standard soil in pots. After cultivation for one day (pre-emergence) or after 8 days cultivation (post-emergence) under controlled conditions in a glasshouse (at 24/16° C., day/night; 14 hours light; 65% humidity), the plants were sprayed with an aqueous spray solution derived from the formulation of the technical active ingredient in acetone/water (50:50) solution containing 0.5% Tween 20 (polyoxyethelyene sorbitan monolaurate, CAS RN 9005-64-5). The test plants were then grown in a glasshouse under controlled conditions in a glasshouse (at 24/16° C., day/night; 14 hours light; 65% humidity) and watered twice daily. After 13 days for pre and post-emergence, the test was evaluated ([…] to plant; 0=no damage to plant).
(§2) Setaria faberi (SETFA), Lolium perenne (LOLPE), Alopecurus myosuroides (ALOMY), Echinochloa crus-galli (ECHCG) and Avena fatua (AVEFA).

Assay [2] concerns Alopecurus myosuroides (ALOMY). Put plainly: Pre-emergence herbicidal glasshouse test, Alopecurus myosuroides. The settings on record: Alopecurus myosuroides, 312 h, rate 250 g/ha, evaluated after 13 days, scale 100 = total damage to plant, 0 = no damage. The method, boiled down:
(§3)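 Visual damage scores (0 = undamaged, top = plant totally killed) were taken 13 days after spraying. Treatment was given one day after sowing or at day 8 of cultivation, under 24/16° C. glasshouse conditions.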

Assay [3] has as its system Echinochloa crus-galli (ECHCG). Put plainly: Pre-emergence herbicidal glasshouse test, Echinochloa crus-galli. The note with it: Echinochloa crus-galli, 312 h, rate 250 g/ha, evaluated after 13 days, scale 100 = total damage to plant, 0 = no damage. Summed up: as §3
Assay [4] relates to Avena fatua (AVEFA). Briefly: Pre-emergence herbicidal glasshouse test, Avena fatua. The settings on record: Avena fatua, 312 h, rate 250 g/ha, evaluated after 13 days, scale 100 = total damage to plant, 0 = no damage. The method, boiled down:
as §3

Assay [5] deals with Setaria faberi (SETFA). Put plainly: Post-emergence herbicidal glasshouse test, Setaria faberi. The note with it: Setaria faberi, 312 h, rate 250 g/ha, evaluated after 13 days, scale 100 = total damage to plant, 0 = no damage. The protocol:
as §1, §2

Assay [6] concerns Alopecurus myosuroides (ALOMY). Briefly: Post-emergence herbicidal glasshouse test, Alopecurus myosuroides. The note with it: Alopecurus myosuroides, 312 h, rate 250 g/ha, evaluated after 13 days, scale 100 = total damage to plant, 0 = no damage. Summed up: as §3
For assay [7], the system named is Echinochloa crus-galli (ECHCG). Briefly: Post-emergence herbicidal glasshouse test, Echinochloa crus-galli. The note with it: Echinochloa crus-galli, 312 h, rate 250 g/ha, evaluated after 13 days, scale 100 = total damage to plant, 0 = no damage. Summed up:
as §3

Assay [8] has as its system Avena fatua (AVEFA). Put plainly: Post-emergence herbicidal glasshouse test, Avena fatua. The settings on record: Avena fatua, 312 h, rate 250 g/ha, evaluated after 13 days, scale 100 = total damage to plant, 0 = no damage. The method, boiled down: as §3

Broadly, the pest or weed control is the degree to which the test organism was suppressed or injured, in per cent. A lower pest or weed control goes with a weak effect. Turning to `CCc1cc(-c2ccc(Cl)c(Cl)c2F)ccc1C1=C(O)[C@@]2(C)CC[C@H](O2)C1=O` (racemic) [Compound A-31], the pest or weed control at 250 g/ha was found to be 60% in the assay on Setaria faberi (SETFA) [1]; 30% in assay [2]; 50% in assay [3]; 30% in the assay on Avena fatua (AVEFA) [4]; 100% in the assay on Setaria faberi (SETFA) [5]; 90% in assay [6]. Also, the results for the pest or weed control at 250 g/ha (in assay [7]; in the assay with Avena fatua (AVEFA) [8]) were 100% and 40%, respectively.

As to `CCc1cc(-c2cc(Cl)cc(Cl)c2)ccc1C1=C(O)[C@@]2(C)CC[C@H](O2)C1=O` [Compound A-15], the pest or weed control at 250 g/ha worked out at 40% with Setaria faberi (SETFA) [1]; 0% in assay [2]; 30% in assay [3]; 40% in the assay with Avena fatua (AVEFA) [4]; 100% in the assay with Setaria faberi (SETFA) [5]; 100% in assay [6]. The pest or weed control at 250 g/ha worked out at 100% in assay [7] and 80% in the assay on Avena fatua (AVEFA) [8].
